These are literature values, as cited in US20070219127A1, “CYCLOSPORIN A COMPOSITIONS” (priority 2006, published 2007).

As for `FC1(F)C(F)(F)C(F)(F)C2(F)C(F)(F)C(F)(F)C(F)(F)C(F)(F)C2(F)C1(F)F` (centres unmarked) [PFD, Perfluoro (decahydronaphthalene)], the “systemically administered elimination half-life” value was “about 7 days”.

As for `FC1(F)C(F)(F)C(F)(F)C2(F)C(F)(C1(F)F)C(F)(F)C(F)(F)C1(F)C(F)(F)C(F)(F)C(F)(F)C(F)(F)C12F` (centres unmarked) [PPP, perfluoroperhydrophenanthrene], the “systemically administered elimination half-life” value is “about 7 days”.
